GI50 and TGI data for three compounds are collected here from PubChem BioAssay (NCI).

Some test systems named below: 786-0 renal; A549 NSCLC; HCT-116 colon; K-562 leukemia; NCI/ADR-RES ovarian; PC-3 prostate; SF-295 CNS; SK-MEL-28 melanoma; SNB-75 CNS; UO-31 renal.
What all share (test): NCI-60 cell line screen, 48 h

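96-well plates; 48 h exposure; 5 concentrations. Endpoints by linear interpolation between flanking doses. Not reached: highest tested concentration assigned. Abbreviation: GI50, concentration required for 50% inhibition of growth. TGI: concentration producing complete growth inhibition.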

For the compound `Cn1c(COC(=O)N2CCCCC2)nc2c(N3CCOCC3)nc(-c3ccccc3)nc21`, the GI50 was 732 nM with 786-0 renal; 1480 nM in the experiment with A549 NSCLC; 173 nM in the experiment with HCT-116 colon; 364 nM in the experiment with K-562 leukemia; 1670 nM in the experiment with NCI/ADR-RES ovarian; 666 nM in the experiment with PC-3 prostate. In addition, the GI50 with SF-295 CNS is 1580 nM; with SK-MEL-28 melanoma, 1520 nM; in the experiment on SNB-75 CNS, 817 nM; in the experiment with UO-31 renal it was 260 nM. Besides, the TGI in the experiment with 786-0 renal came to 2000 nM; in the experiment with A549 NSCLC, 3450 nM; with HCT-116 colon, 471 nM; in the experiment with K-562 leukemia, 6700 nM; in the experiment on NCI/ADR-RES ovarian it was 5720 nM; in the experiment with PC-3 prostate, 2150 nM. Besides, the TGI with SF-295 CNS turned out to be 2970 nM; with SK-MEL-28 melanoma it was 2860 nM; in the experiment with SNB-75 CNS, 2180 nM; in the experiment on UO-31 renal it was 1450 nM.
Take `O=C(Nc1cc(C(F)(F)F)ccc1F)Nc1n[nH]c2ccccc12`: the GI50 in the experiment with 786-0 renal, with A549 NSCLC, in the experiment on HCT-116 colon, in the experiment on K-562 leukemia, in the experiment on NCI/ADR-RES ovarian and in the experiment with PC-3 prostate was greater than 100000 nM in each case. The GI50 with SF-295 CNS is greater than 100000 nM; in the experiment on SK-MEL-28 melanoma, greater than 100000 nM; in the experiment on SNB-75 CNS, 40100 nM; in the experiment with UO-31 renal, greater than 100000 nM. Also, the TGI in the experiment on 786-0 renal, in the experiment with A549 NSCLC, in the experiment on HCT-116 colon, in the experiment on K-562 leukemia, in the experiment with NCI/ADR-RES ovarian and with PC-3 prostate was greater than 100000 nM throughout. Moreover, the TGI in the experiment with SF-295 CNS, in the experiment on SK-MEL-28 melanoma, in the experiment with SNB-75 CNS and in the experiment with UO-31 renal was greater than 100000 nM in each case.
For the compound `CCN(CC)c1ccc2c(c1)Oc1nc(N)c(C#N)c(N)c1C2Sc1ccc(SC)cc1` (stereo not given), the GI50 in the experiment with 786-0 renal was 1750 nM; in the experiment on A549 NSCLC, 1940 nM; in the experiment on HCT-116 colon, 1460 nM; in the experiment with K-562 leukemia it was 2330 nM; with NCI/ADR-RES ovarian, 2390 nM; in the experiment with PC-3 prostate it was 1410 nM. The GI50 in the experiment with SF-295 CNS is 1670 nM; in the experiment on SK-MEL-28 melanoma, 2050 nM; in the experiment with SNB-75 CNS it was 1560 nM; in the experiment on UO-31 renal, 1510 nM. In addition, the TGI was found to be 3190 nM in the experiment with 786-0 renal; 3500 nM in the experiment on A549 NSCLC; 2810 nM in the experiment on HCT-116 colon; 5690 nM with K-562 leukemia; 6130 nM in the experiment with NCI/ADR-RES ovarian; 2810 nM in the experiment with PC-3 prostate. Further, the TGI was 3120 nM in the experiment with SF-295 CNS, 3910 nM with SK-MEL-28 melanoma, 3170 nM in the experiment on SNB-75 CNS and 2840 nM with UO-31 renal.
